Data published in US20250171415A1, “SALT OF SUBSTITUTED AMINO SIX-MEMBERED NITRIC HETEROCYCLIC COMPOUND, CRYSTAL FORM THEREOF, METHOD FOR PREPARING SAME, AND USE THEREOF” (SHANGHAI RUNSHI MEDICAL TECHNOLOGY CO., LTD., priority 2022, published 2025).
Structures can show the parent of a compound that is named as a salt.

Experiments:
[1] = Solid grinding stability: solid grinding, XRPD; assay type: physicochemical; details: 20 mg ground in a mortar for 2 min and 5 min
Experimental: 20 mg of the sample in Example 3 was weighed out, added to a mortar, and ground for 2 min and 5 min, respectively. Then, the sample was characterized by XRPD.

[2] = test system: human lung cancer NCI-H1581 nude mouse subcutaneous xenograft tumor; assay: Efficacy in human lung cancer NCI-H1581 nude mouse subcutaneous xenograft tumor model; assay type: in vivo
Source text: The human lung cancer NCI-H1581 cell strain (preserved by Shanghai Institute of Materia Medica, Chinese Academy of Sciences) was inoculated subcutaneously in the right axilla of nude mice with an inoculation amount of the cells of 5×10^6 cells/mouse. The formed xenograft tumor was directly inoculated for use.
The tumor tissue in the vigorous growth phase was cut into about 1.5 mm^3 and was inoculated subcutaneously in the right axilla of the nude mouse under sterile conditions. The diameter of the subcutaneous xenograft tumor in the nude mouse was measured using a vernier caliper, and the animals were randomly grouped after the tumors grew to an average volume of about 150-160 mm^3. Animals in the Example 3 sample group were orally administered at 10 mg/kg, 5 mg/kg, and 2.5 mg/kg once a day for two consecutive weeks. Animals in the […] (AZD4547) were orally administered at 12.5 mg/kg once a day for two consecutive weeks. Throughout the experiment, the diameter of the xenograft tumor was measured 2 times a week, and the body weight of the mice was measured at the same time. The tumor volume (TV) was calculated as follows: TV=½×a×b^2, wherein a and b represent the length and width, respectively. The relative tumor volume (RTV) was calculated from the measurement results using the following formula: RTV=Vt/V0, wherein V0 is the tumor volume measured at the time of grouping and administration (d0), and Vt is the tumor volume at each measurement. The evaluation index of the anti-tumor activity was the relative tumor proliferation rate T/C (%), which was calculated as follows: T/C (%)=(TRTV/CRTV)×100%, wherein TRTV represents RTV of the treatment group; CRTV represents RTV of the negative control group.

[3] = Solid grinding stability: dropwise addition of solvents and grinding; assay type: physicochemical; details: ground
[4] = Water sorption and desorption experiments (DVS hygroscopicity); assay type: physicochemical; details: 40%-80% relative humidity, 25° C.
[5] = Solid stability study of dihydrochloride salt crystal form I; assay type: physicochemical
Source text: (in a covered sample flask) for 7 days, and for physical stability at room temperature/92.5% RH (uncovered) for 10 days.

[6] = Solubility experiments of compound of formula (I) and salts thereof; assay type: physicochemical; details: 25° C.
[7] = 40° C./75% RH (uncovered) for 7 days
[8] = 60° C. (covered sample flask) for 7 days
[9] = Na2HPO4-citric acid buffer (pH 4.6)

For `CNC(=O)c1cccc2cc(Oc3ccnc(NC(=O)c4ccc(N5C[C@@H](C)N[C@@H](C)C5)cc4)c3)ccc12` [Dihydrochloride salt crystal form I], which “Crystal form of the ground sample (XRPD)” value [1] is on record?
Its value is “not changed”.

And the “T/C (relative tumor proliferation rate)” value ([2]; 2.5 mg/kg orally once a day for two consecutive weeks)?
The value was 49.06%.

And the “T/C (relative tumor proliferation rate)” value ([2]; 5 mg/kg orally once a day for two consecutive weeks)?
Its value is 33.22%.

What about the “T/C (relative tumor proliferation rate)” value ([2]; 10 mg/kg orally once a day for two consecutive weeks) of the same molecule?
Its value is 17.17%.

And the “Effect on the growth of xenograft tumors” value ([2]; 10 mg/kg, 5 mg/kg and 2.5 mg/kg orally once a day for two consecutive weeks)?
The value was “significant inhibitory effect”.

What about the “Animal condition and mortality during the experiment” value ([2]; 10, 5 and 2.5 mg/kg orally once a day for two weeks, nude mice) of the same molecule?
Its value is “no mice died”.

And the “Solvent grinding result (crystal form)” value ([3]; Acetone added dropwise)?
Its value is “Crystal form I”.

What about the “Solvent grinding result (crystal form)” value ([3]; Acetonitrile added dropwise) of the same molecule?
The value was “Crystal form I”.

And the “Solvent grinding result (crystal form)” value ([3]; Butanone added dropwise)?
The value was “Crystal form I”.

And the “Solvent grinding result (crystal form)” value ([3]; Ethanol added dropwise)?
The value was “Crystal form I”.

What about the “Solvent grinding result (crystal form)” value ([3]; Ethyl acetate added dropwise) of the same molecule?
Its value is “Crystal form I”.

What about the “Solvent grinding result (crystal form)” value ([3]; Isopropanol added dropwise) of the same molecule?
Its value is “Crystal form I”.

What about the “Solvent grinding result (crystal form)” value ([3]; Methanol added dropwise) of the same molecule?
Its value is “Crystal form I”.

What about the “Hygroscopicity (%)” value [4] of the same molecule?
The value was 0.65%.

What about the Purity [5, 7] of the same molecule?
The Purity was 99.86.

And the “XRPD (crystal form)” value [5, 7]?
Its value is “Not changed”.

And the Purity [5, 8]?
The Purity was 99.85.

What about the “XRPD (crystal form)” value [5, 8] of the same molecule?
The value was “Not changed”.

And the Purity ([5]; T0)?
The Purity was 99.85.

And the “XRPD (crystal form)” value ([5]; room temperature/92.5% RH (uncovered) for 10 days)?
Its value is “Not changed”.

With `CNC(=O)c1cccc2cc(Oc3ccnc(NC(=O)c4ccc(N5C[C@@H](C)N[C@@H](C)C5)cc4)c3)ccc12` [Compound of formula (I)] as the molecule, how does the Solubility [6, 9] read?
The Solubility was 45 µg/mL.

And the Solubility ([6]; deionized water)?
The Solubility was 8 µg/mL.

For `C[C@@H]1COC(Nc2ccc3ncnc(Nc4ccc(OCc5nccs5)c(Cl)c4)c3c2)=N1.O=C(O)/C=C\C(=O)O` [Maleate salt], which Solubility [6, 9] is on record?
The Solubility was 30 µg/mL.

What about the Solubility ([6]; deionized water) of the same molecule?
The Solubility was 2000 µg/mL.

What about the “Hygroscopicity (%)” value [4] of the same molecule?
The value was 0.81%.

For `COc1cc(CCc2cc(NC(=O)c3ccc(N4C[C@@H](C)N[C@@H](C)C4)cc3)n[nH]2)cc(OC)c1` [AZD4547, reference compound], which “T/C (relative tumor proliferation rate)” value ([2]; 12.5 mg/kg orally once a day for two consecutive weeks) is on record?
The value was 20.01%.
